Experiments:
Caspase-3 [1] = molecular target: T1, Caspase-3 (Homo sapiens, UniProt P42574); test: Recombinant caspase assay with Ac-DEVD-AMC, caspase-3; type: biochemical; conditions: 10 μM Ac-DEVD-AMC, 30 minutes at 37° C.
T1 sequence (P42574 29-175 limits assumed): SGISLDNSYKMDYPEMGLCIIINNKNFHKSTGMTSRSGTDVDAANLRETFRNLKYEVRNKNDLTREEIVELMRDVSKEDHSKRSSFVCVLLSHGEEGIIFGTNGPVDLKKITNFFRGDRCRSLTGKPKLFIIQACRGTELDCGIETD
Description: The inhibitory activity of Cbz-Val-Asp-CH2F in recombinant caspase 3, 6, 7 and 8 obtained from PharMington (a Becton division company, San Diego, Calif.) were measured using Ac-DEVD-AMC (SEQ ID NO:1). The amount of each enzyme per assay was as following: 1 ng caspase3, 15 ng caspase6, 2 ng caspase7 and 60 ng caspase8. The enzyme reaction was conducted in 96-well plate using a caspase buffer (20 mM PIPES, 100 mM NaCl, 10 mM DTT, 1 mM EDTA, 0.1% CHAPS and 10% sucrose, pH 7.2) and the reaction was initiated by adding 10 μM Ac-DEVD-AMC (SEQ ID NO:1) (purchased from Quality Controlled Biochemicals, Inc. Hopkinton, Mass.). Twelve concentrations of Cbz-Val-Asp-CH2F ranged from 30 μM to […] were tested after incubation of the compound with recombinant caspases for 30 minutes at 37° C. […] The data was analyzed using GraphPrism software.

Caspase-3 [2] = molecular target: T1, Caspase-3; test: Caspase-3 activity of the dipeptide inhibitors (Table III); type: biochemical
HeLa cells [3] = test: Cell death assay with HeLa cells, quantitative (calcein AM), TNF-α/CHX challenge; type: cell-based
Description: (§1) The cytoprotective properties of Cbz-Val-Asp(OMe)CH2F were tested using HeLa cells challenged with tumor necrosis factor-alpha (TNF-α) and cycloheximide (CHX). This is a well-characterized cell culture model of apoptosis which is commonly used to analyze anti-apoptotic agents. Two types of experiments were performed: a qualitative assessment of cell death by visualization of the cells using phase contrast microscopy; and a quantitative assessment of cell death using the fluorescent dye calcein AM.
For quantitative assays, the degree of cell survival in the presence of test compounds is analyzed quantitatively using the indicator dye calcein AM. This dye is taken up and converted to a fluorescent derivative by living cells; the amount of activated dye in each well can then be assayed in a fluorometric plate reader and the degree of fluorescence is used as a measure of the number of surviving cells. For these assays, HeLa cells are seeded in 48-well plates at a density of 25,000 cells per well in 0.4 mL of Minimal Essential Medium containing 2 mM glutamine and 10% fetal bovine serum. 24 hours later the plating medium is removed and 0.5 mL of fresh medium containing test compound at various concentrations is added. The cells are pre-incubated with test compound for 2 hours at 37° C. in a CO2 incubator and then TNF-α and CHX are added at final concentrations of 25 ng/mL and 30 μg/mL, respectively. After a 24 hour incubation period, the cultures are washed twice with serum-free, phenol red-free Ham's F12 to remove dead cells and 125 μL of Ham's F12 containing 8 μM calcein AM is added. […] The data are expressed as “Percent Control,” which is calculated by the following equation: Percent Control=(Calcein AM Signal in the Presence of Test Compound+TNF-α and CHX/(Calcein AM Signal in the Presence of CHX Only)×100% The use of CHX-treated cultures as controls, rather than untreated cultures, allows one to correct for the cytostatic effects of CHX. However, because CHX by itself is also a mild inducer of apoptosis in HeLa cells, strong anti-apoptotic drugs will give a Percent Control value greater than 100%.
Quantitative experiments using calcein AM, as described above, corroborate the results obtained by microscopic examination. FIGS. 4 and 5 illustrate the results of two such experiments where the cytoprotective properties of Cbz-Val-Asp(OMe)-CH2F (a) were compared to BOC-Asp(OMe)-CH2F (b) (FIG. 5) and Cbz-Asp(OMe)-Glu(OMe)-Val-Asp(OMe)-CH2F (SEQ ID NO:1) (c) (FIG. 4) at three concentrations (0.5, 5 and 50 μM). […] By contrast, Cbz-Val-Asp(OMe)-CH2F (a) is as effective a cytoprotectant at 0.5 μM as Cbz-Asp(OMe)-Glu(OMe)-Val-Asp(OMe)-CH2F (SEQ ID NO:1) […] is at 50 μM (FIG. 4).
In order to determine the effect of Cbz-Val-Asp(OMe)-CH2F at low doses, HeLa cells were treated with a range of concentrations from 0.05 μM to 1 μM.

HeLa cells [4] = test: Cell death assay with HeLa cells, qualitative (phase contrast microscopy), TNF-α/CHX challenge; type: cell-based; conditions: for cytoprotection of HeLa cells from apoptotic effects of TNF-α and CHX (microscopy): 24 hour incubation
Description: as §1
For photomicroscopy, HeLa cells are seeded in 12-well multidishes at a density of 100,000 cells per well in Minimal Essential Medium containing 2 mM glutamine and 10% fetal bovine serum. 24 hours later the plating medium is removed and fresh medium is added containing the cytoprotective test compound at various concentrations. The cells are pre-incubated with test compound for 2 hours at 37° C. in a CO2 incubator and then TNF-α and CHX are added at final concentrations of 25 ng/mL and 30 μg/mL, respectively. After a 24 hour incubation period, the cells are examined visually for evidence of cell death based on cell shape and degree of adherence. Cells are considered dead if they have become rounded up and phase bright and have detached from the substratum. Cells are considered alive if they have retained their normal morphology and remain attached to the substratum.
All of these compounds are the methyl ester derivatives. […] At 50 μM, the related peptides BOC-Asp(OMe)-CH2F (FIG. 1C) and Cbz-Glu(OMe)-Val-Asp(OMe)-CH2F (FIG. 1E) are also protective.

| SMILES | IC50 (Caspase-3 [1]) [nM] | IC50 (Caspase-3 [2]) [nM] | protection of HeLa cells from TNF-α/CHX (calcein AM) (HeLa cells [3]; 0.5 μM) | concentration giving significant protection of HeLa cells from TNF-α/CHX (HeLa cells [3]; range 0.05 μM to 1 μM tested) [µM] | cytoprotection of HeLa cells from apoptotic effects of TNF-α and CHX (microscopy) (HeLa cells [4]; 0.5 μM) | cytoprotection of HeLa cells from apoptotic effects of TNF-α and CHX (microscopy) (HeLa cells [4]; 5 μM) | cytoprotection of HeLa cells from apoptotic effects of TNF-α and CHX (microscopy) (HeLa cells [4]; 50 μM) | protective concentration, fold lower than other putative anti-apoptotic agents (HeLa cells [4]; HeLa cells, TNF-α/CHX-induced apoptosis) [fold] |
| --- | --- | --- | --- | --- | --- | --- | --- | --- |
| CC(C)[C@H](NC(=O)OCc1ccccc1)C(=O)NC(CC(=O)O)C(=O)CF (stereo partly drawn) [Cbz-Val-Asp-CH2F, Z-Val-Asp-fmk] | 19.8 | 40 | – | – | – | – | – | – |
| COC(=O)CC(NC(=O)C(NC(=O)OCc1ccccc1)C(C)C)C(=O)CF (stereo not drawn) [Cbz-Val-Asp(OMe)-CH2F, Z-Val-Asp-fmk Methyl Ester] | – | – | highly active | ≤ 0.25 | still an effective cytoprotectant | surprisingly strong cytoprotective action | completely protects | 10 to 100 |
